# From paper PMC11123961, “Design, Synthesis, and Biological Evaluation of the Quorum-Sensing Inhibitors of Pseudomonas aeruginosa PAO1” (Molecules, 2024)
# Tests used:
# [1] = system: P. aeruginosa PAO1 biofilms; assay: Biofilm quantification, crystal violet assay; format: cell-based, Pseudomonas aeruginosa; conditions: Pseudomonas aeruginosa, PAO1
# Procedure: 3.2.3. Biofilm Quantification Assays
# The crystal violet assay was used to quantitatively analyze the biofilm, as previously described. P. aeruginosa PAO1 log phase was diluted 100 times with fresh LB medium and incubated for 3.5 h at 37 °C and 150 rpm. After that, the P. aeruginosa PAO1 bacterial culture was added to the 96-well plate. P. aeruginosa PAO1 bacterial culture in 90 μL was added to the experimental group, and 10 μL of the test compound at a final concentration of 325 μM, 162.5 μM, 81.25 μM, 40 μM, 20 μM, and 10 μM. Each well received 100 μL of bacterial culture for the control group and 100 μL of fresh LB medium for the blank group. After 20 h of incubation at 37 °C, the bacterial culture was removed from the 96-well plate, and it was dried after three PBS washes. Each well received […] of 0.1% crystal violet (CV) for a 15 min staining period. Each well was washed three times with PBS after the CV was removed. Lastly, each well received 150 μL of 33% glacial acetic acid, and a Biotek multi-function microplate reader was used to measure the absorbance value at 595 nm. The biofilm inhibition rate was calculated as follows = (OD595 blank − OD595 sample)/OD595 blank × 100%.
# [2] = system: P. aeruginosa PAO1 elastase; assay: Elastase quantification (EnzCheck Elastase Assay Kit); format: cell-based, Pseudomonas aeruginosa
# Procedure: The method previously described was used to perform the elastase quantification experiment. In LB medium, P. aeruginosa PAO1 was cultivated until the logarithmic growth phase at 37 °C and 150 rpm. […] Elastase activity was detected using the EnzCheckTM Elastase Assay Kit after filtration with a 0.22 μm filter membrane.
# [3] = system: P. aeruginosa PAO1 rhamnolipid; assay: Rhamnolipid quantification assay (orcinol); format: cell-based, Pseudomonas aeruginosa
# Procedure: The rhamnolipid quantification assay was as follows: sulfuric acid–orcinol concentrated solution was used to examine the compound’s impact on P. aeruginosa PAO1 rhamnolipid. Initially, 50 μg/mL, 100 μg/mL, 200 μg/mL, and 400 μg/mL of a prepared solution of rhamnose standard at a concentration of 1 mg/mL in tilled water were diluted. Subsequently, 900 μL of 0.19% orcinol-concentrated sulfuric acid solution (0.19% orcinol (w/v), 50% H2SO4) was mixed with 100 μL of each concentration of rhamnose standard solution, and the mixture was incubated for 30 min at 80 °C in a water bath. After cooling to 25 °C, the OD value at 421 nm was measured. A standard curve of rhamnose concentration–absorbance values was established using Excel software 2019.
# After cultivating P. aeruginosa PAO1 in LB medium for a logarithmic growth phase at 37 °C and 150 rpm, the bacterial culture was diluted with PPGAS solution (20 mM KCl, 20 mM NH4Cl, 0.5% glucose, 1.6 mM MgSO4, 120 mM Tris-HCl, and 1.0% peptone) to OD600 = 0.05. […] After centrifuging the bacterial cultures for 10 min at 1665 g, the supernatants were gathered. After extracting the supernatants twice using ethyl acetate, the organic layers were gathered and allowed to dry out at room temperature overnight. After resuspending the solid product in deionized water, 100 μL was added to 900 μL of 0.19% orcinol in 50% H2SO4, and the mixture was incubated for 30 min at 80 °C in a water bath. After cooling to 25 °C, the OD value at 421 nm was measured. The rhamnolipid content in the sample was determined according to a rhamnose standard curve (rhamnolipid content = 2.5 × rhamnose content).
# [4] = system: RAW 264.7 cells; assay: Cytotoxicity test, CCK8; format: cell-based, mouse; conditions: 162.50, 81.25 and 40.00 μM, 12 h
# Procedure: The cell line used in this study was mouse mononuclear macrophage leukemia cell RAW 264.7. The cells were cultured in DMEM complete medium (basal medium containing 10% fetal bovine serum, 100 U/mL penicillin, and […] streptomycin) at 37 °C in a 5% CO2 incubator. When the cells covered 80% of the bottom of the plate, they were passaged more than three times.
# Adherent RAW 264.7 cells were digested to detach the cells. Digestion was stopped via the addition of PBS and centrifuging at 1000 rpm for 5 min. The supernatant was discarded, and the cells were resuspended in 1 mL of medium for cell counting. Based on the counting results, the cell suspension was diluted. Then, 100 μL of the diluted cell suspension was added to a 96-well plate, with approximately 1 × 10^4 cells per well. The cells were then placed in the incubator to allow for adherence.
# One well without cells received 100 μL of complete medium as a blank control, and one well with cells received 100 μL of complete medium as a negative control. […]
# After incubation, the medium was removed, and 100 μL of 10% CCK8 solution was added to each well. The absorbance at 450 nm (OD450) was measured at 0.5 h, 1 h, and 2 h until OD450 = 1.
# Cell viability was calculated using the following formula: cell activity = (OD450 compound − OD450 blank)/(OD450 negative control − OD450 blank) x 100%
# [5] = system: wildtype Caenorhabditis elegans N2 infected with P. aeruginosa PAO1; assay: C. elegans survival assay; format: in vivo
# From the text: 3.2.7. C. elegans Survival Assay
# The negative control was the PGS agar plate coated with E. Coli OP50. Next, 50 wildtype C. elegans N2 strain-synchronized nematodes (L4 stage) were chosen and placed onto the plates. […] When the nematodes in the study were immobile, they were deemed dead. The number of nematodes that survived was tabulated to generate a survival curve.
smiles,measurement,setting,value
O=C(CCCOc1ccc(I)cc1)NN1CCCOC1=O [Y-31],inhibition at 40 µM,"[1]; 40 μM, read-out: P. aeruginosa PAO1 biofilm inhibition rate",40.4%
same,inhibition at 20.3125 µM,"[1]; concentration 20.3125 (unit not given in Table S1; μM in method), 20 h, read-out: Inhibition ratio of biofilm",21.1%
same,inhibition at 40.625 µM,"[1]; concentration 40.625 (unit not given in Table S1; μM in method), 20 h, read-out: Inhibition ratio of biofilm",40.4%
same,inhibition at 81.25 µM,"[1]; concentration 81.25 (unit not given in Table S1; μM in method), 20 h, read-out: Inhibition ratio of biofilm",39.5%
same,inhibition at 162.5 µM,"[1]; concentration 162.5 (unit not given in Table S1; μM in method), 20 h, read-out: Inhibition ratio of biofilm",42.1%
same,inhibition at 325 µM,"[1]; concentration 325 (unit not given in Table S1; μM in method), 20 h, read-out: Inhibition ratio of biofilm",41%
same,Inhibition rate of elastase,[2]; 162.5 μM,22.7%
same,inhibition at 40 µM,"[2]; Pseudomonas aeruginosa, PAO1, read-out: Inhibition rate of elastase, 40 μM",11.3%
same,inhibition at 81.5 µM,"[2]; Pseudomonas aeruginosa, PAO1, read-out: Inhibition rate of elastase, 81.5 μM",20%
same,inhibition at 162.5 µM,"[2]; Pseudomonas aeruginosa, PAO1, read-out: Inhibition rate of elastase, 162.5 μM",22.7%
same,Inhibition rate of rhamnolipid,[3]; 162.5 μM,6.1%
same,inhibition at 40 µM,"[3]; Pseudomonas aeruginosa, PAO1, read-out: Inhibition rate of rhamnolipid, 40 μM",0.4%
same,inhibition at 81.5 µM,"[3]; Pseudomonas aeruginosa, PAO1, read-out: Inhibition rate of rhamnolipid, 81.5 μM",5.8%
same,inhibition at 162.5 µM,"[3]; Pseudomonas aeruginosa, PAO1, read-out: Inhibition rate of rhamnolipid, 162.5 μM",6.13%
same,Cytotoxicity towards RAW 264.7 cells (cell viability),[4],did not exhibit significant cytotoxicity
same,"Average survival rate of infected nematodes, Y-31 combined with Tob compared with Y-31 or Tob alone",[5]; Y-31 162.5 μM + Tob 0.25 μg/mL,significantly improved
same,Improvement of the survival rate of infected nematodes (average),"[5]; after 48 h, agent alone: Y-31 162.5 μM, Tob 0.25 μg/mL",9.33%
